Measurements published in publication PMC12040169 (PLOS Biology, 2025).

Experiment: in vitro
Conditions: human, hela cells, % viability

Row | SMILES | viability at 28.5 h, 10 µM [%] | viability at 28.5 h, 10 µM (bulk resorufin, single well) [%]
1 | O=C(O)C1CC1C(=O)N1CCC2(CC1)OCCc1c2[nH]c2ccccc12 (centres unmarked) [CBK047167] | 89.2 | 
2 | O=C(O)COCC(=O)N1CCC2(CC1)NC(=O)Cc1c2ccc2ccccc12 [CBK047168] | 88.4 | 
3 | O=C1Cc2cc3ccccc3cc2C2(CCN(C(=O)C3CCC3C(=O)O)CC2)N1 (centres unmarked) [CBK047252] | 92.5 | 
4 | Cc1ccc2c(c1)CC(=O)NC21CCN(C(=O)C2CC2C(=O)O)CC1 (centres unmarked) [CBK047258] | 103 | 
5 | CC(CC(=O)O)CC(=O)N1CCC2(CC1)NC(=O)Cc1ccccc12 (centres unmarked) [CBK047281] | 95.3 | 
6 | O=C1Cc2ccccc2C2(CCN(C(=O)Nc3c(F)cccc3F)CC2)N1 [CBK047296] | 89 | 
7 | O=C1Cc2ccccc2C2(CCN(C(=O)c3cccc4cccc(C(=O)O)c34)CC2)N1 [CBK047313] | 93.2 | 
8 | COc1ccc2c(c1)CC(=O)NC21CCN(C(=O)N[C@@H](C)c2ccccc2)CC1 [CBK047325] | 92.4 | 
9 | C=CCNC(=O)N1CCC2(CC1)OCCc1c2n(C)c2ccccc12 [CBK047354] | 84.8 | 
10 | CCOC(=O)c1ccc(NC(=O)N2CCC3(CC2)NC(=O)Cc2ccccc23)cc1 [CBK047362] | 107 | 
11 | CCOC(=O)c1[nH]c2ccccc2c1NS(=O)(=O)c1ccc(NC(C)=O)cc1 [CBK047411] | 81.4 | 
12 | CCOC(=O)c1[nH]c2ccccc2c1NS(=O)(=O)Cc1ccccc1 [CBK047413] | 93.1 | 
13 | CCOC(=O)c1[nH]c2ccccc2c1NS(=O)(=O)c1ccc(OC)c(OC)c1 [CBK047421] | 86 | 
14 | CCOC(=O)c1[nH]c2ccccc2c1NS(=O)(=O)c1cccc(Cl)c1C [CBK047423] | 88.9 | 
15 | CCOC(=O)c1[nH]c2ccccc2c1NS(=O)(=O)c1ccc(C)c([N+](=O)[O-])c1 [CBK047427] | 97.6 | 
16 | CCOC(=O)c1sc(NS(=O)(=O)c2cccc3cccnc23)nc1C [CBK047443] | 91.6 | 
17 | CCOC(=O)c1sc(NS(=O)(=O)Cc2ccccc2[N+](=O)[O-])nc1C [CBK047458] | 98.5 | 
18 | CNC(=O)CC1SC(NC2CC3C=CC2C3)=NC1=O (centres unmarked) [CBK047491] | 90.7 | 
19 | CC(=O)Nc1ccc(SC(C)c2nsc(NS(=O)(=O)c3ccc(-c4ccccc4)cc3)n2)cc1 (centres unmarked) [CBK047508] | 91.5 | 
20 | O=C(Nc1ccc(F)c(F)c1)N[C@H]1CC[C@@]2(c3cccc(Br)c3)CCN(Cc3ccccc3)[C@H]2C1 [CBK047515] | 107 | 
21 | COc1ccc([C@@]23CCC(NC(=O)Nc4ccccc4OC(F)F)C[C@@H]2N(C)CC3)cc1OC (some centres unmarked) [CBK047547T] | 97.9 | 

Row | SMILES | viability at 28.5 h, 10 µM [%] | viability at 28.5 h, 10 µM (bulk resorufin, single well) [%]
22 | COc1ccc([C@@]23CCC(NC(=O)Nc4cc(C(F)(F)F)ccc4F)C[C@@H]2N(C)CC3)cc1OC (some centres unmarked) [CBK047552T] | 87.2 | 
23 | CNC(=O)c1cc(-c2cccc(Cl)c2)oc1CC(=O)c1ccc(CN2CCCC2)cc1 [CBK047558] | 95.3 | 
24 | Cc1ccc(-c2csc(CC#N)n2)cc1 [CBK047576] | 79.3 | 
25 | O=S(=O)(NCc1cccc(F)c1F)c1cc2c(N3CCNCC3)nccc2s1 [CBK047588C] | 103 | 
26 | CN(C)C(=O)c1ccc(Cn2nc(C(=O)Nc3nccs3)c3ccccc32)cc1 [CBK047701] |  | 95.4
27 | O=C(NC1CC1)c1nn(Cc2ccc(S(=O)(=O)N3CCCCC3)cc2)c2ccccc12 [CBK047820] |  | 106
28 | Cc1ccc(Cn2nc(C(=O)NCCc3c[nH]c4ccccc34)c3ccccc32)cc1 [CBK047830] |  | 98.7
29 | Cc1ccc(Cn2nc(C(=O)NCC3COc4ccccc4O3)c3ccccc32)cc1 (centres unmarked) [CBK047831] |  | 91.2
30 | Cc1ccc(Cn2nc(C(=O)Nc3nc4ccccc4s3)c3ccccc32)cc1 [CBK047837] |  | 92.4
31 | Cc1ccc(Cn2nc(C(=O)Nc3cc(C)nn3C)c3ccccc32)cc1 [CBK047842] |  | 77.9
32 | Cc1ccc(Cn2nc(C(=O)Nc3cc(C)on3)c3ccccc32)cc1 [CBK047844] |  | 98.7
33 | Cc1ccc(Cn2nc(C(=O)Nc3ccc4c(c3)OCO4)c3ccccc32)cc1 [CBK047847] |  | 87
34 | COc1ccc(Cn2nc(NS(=O)(=O)c3cn(C)cn3)c3ccccc32)cc1 [CBK048143] | 87.7 | 
35 | Cc1nn(C)c(Cl)c1S(=O)(=O)Nc1nn(Cc2ccc(C#N)cc2)c2ccccc12 [CBK048185] | 111 | 
36 | Cc1ccc(Cn2nc(NC(=O)c3ccccc3)c3ccccc32)cc1 [CBK048213] | 97.5 | 
37 | Cc1ccc(Cn2nc(NC(=O)c3cccn3C)c3ccccc32)cc1 [CBK048214] | 97.4 | 
38 | Cc1ccc(Cn2nc(NC(=O)C3CCCCC3)c3ccccc32)cc1 [CBK048217] | 96.5 | 
39 | O=C(Nc1nn(Cc2ccc(Oc3ccccc3)cc2)c2ccccc12)c1ccno1 [CBK048224] | 97.8 | 
40 | CC(=O)Nc1nn(Cc2cc3c(cc2Cl)OCO3)c2ccccc12 [CBK048251] | 96.5 | 
41 | N#Cc1ccc(Cn2nc(NC(=O)c3ccco3)c3ccccc32)cc1 [CBK048260] | 91.8 | 
42 | COc1cccc(C(=O)Nc2nn(Cc3ccc(C(F)(F)F)cc3)c3ccccc23)c1 [CBK048273] | 83.9 | 

Row | SMILES | viability at 28.5 h, 10 µM [%] | viability at 28.5 h, 10 µM (bulk resorufin, single well) [%]
43 | COc1ccc(Cn2nc(NC(=O)OC(C)C)c3ccccc32)cc1 [CBK048404] | 106 | 
44 | COCC(C)NC(=O)c1nn(-c2nc3ccccc3s2)c2ccccc12 (centres unmarked) [CBK048488] | 92.6 | 
45 | COc1ccc(NC(=O)c2nn(-c3nc4ccccc4o3)c3ccccc23)cc1 [CBK048492] | 93.8 | 
46 | Cn1c(-c2ccc(CN3CCCC3)cc2)cc2onc(-c3cccnc3)c2c1=O [CBK048501C] | 99.1 | 
47 | O=C(NOCc1ccccc1)c1nn(-c2ncccn2)c2ccccc12 [CBK048503] | 93.1 | 
48 | Cc1cc(NC(=O)c2nn(-c3ncccn3)c3ccccc23)n(C)n1 [CBK048505] | 92.3 | 
49 | COc1ccc2nc(-n3nc(C(=O)NCc4ccncc4)c4ccccc43)sc2c1 [CBK048521] | 94.9 | 
50 | CS(=O)(=O)Nc1nn(-c2ccc(NC(=O)c3ccno3)cc2)c2ccccc12 [CBK048591] | 99.5 | 
51 | O=c1[nH]c2cccc(O)c2o1 [CBK048613] | 90.9 | 
52 | Cc1ccc2c(c1)c(NS(C)(=O)=O)nn2Cc1ccc(C#N)cc1 [CBK048643] | 94.2 | 
53 | Cc1ccc2c(c1)c(NC(=O)OC(C)C)nn2Cc1cc2c(cc1Cl)OCO2 [CBK048652] | 99.9 | 
54 | C#CCNC(=O)c1nn(Cc2ccc(CN3C(=O)CCC3=O)cc2)c2ccc(OC)cc12 [CBK048668] | 86.2 | 
55 | CS(=O)(=O)Nc1nccnc1N1CCN(C(=O)c2ccno2)CC1 [CBK048861] | 107 | 
56 | CNC(=S)N1CCN(c2nccnc2NS(=O)(=O)C2CC2)CC1 [CBK048905] | 96.2 | 
57 | COc1ccc(OC)c(-c2cc(C(=O)O)c(C)o2)c1 [CBK049343] | 97.9 | 
58 | COCc1ccc(-c2nccnc2NS(=O)(=O)c2c(C)noc2C)cc1 [CBK049656] | 122 | 
59 | COc1ccccc1CN(CC1CCNCC1)C(=O)Nc1c(C)noc1C [CBK049739] | 94.7 | 
60 | CCOC(=O)c1ccccc1NC(=O)N(Cc1ccc2ccccc2c1)CC1CCNCC1 [CBK049769] | 98.3 | 
61 | Cc1ccc(NC(=O)N(Cc2ccc3ccccc3c2)CC2CCNCC2)cc1[N+](=O)[O-] [CBK049771] | 100 | 
62 | O=C(NCCc1ccccc1)N(Cc1ccc(-c2ccccc2)cc1)CC1CCNCC1 [CBK049792] | 106 | 
63 | COc1ccc(F)c(CN(CC2CCNCC2)C(=O)Nc2c(F)cccc2F)c1 [CBK049804] | 110 | 

Row | SMILES | viability at 28.5 h, 10 µM [%] | viability at 28.5 h, 10 µM (bulk resorufin, single well) [%]
64 | COc1ccc(F)c(CN(CC2CCNCC2)C(=O)Nc2ccccc2C(F)(F)F)c1 [CBK049805] | 96.9 | 
65 | COc1ccc(F)c(CN(CC2CCNCC2)C(=O)Nc2c(C)noc2C)c1 [CBK049811] | 112 | 
66 | O=C(O)c1[nH]c2ccccc2c1NS(=O)(=O)c1ccc(Br)cc1 [CBK049878] | 61.1 | 
67 | Cc1ccc(S(=O)(=O)Nc2c(C(=O)O)[nH]c3ccccc23)cc1 [CBK049880] | 72.6 | 
68 | O=C(O)c1[nH]c2ccccc2c1NS(=O)(=O)c1cc(F)c(Br)cc1F [CBK049885] | 62.8 | 
69 | O=C(O)c1[nH]c2ccccc2c1NS(=O)(=O)c1cc(Cl)sc1Cl [CBK049886] | 67.5 | 
70 | COc1ccc(Br)cc1S(=O)(=O)Nc1c(C(=O)O)[nH]c2ccccc12 [CBK049887] | 97.5 | 
71 | CC(=O)Nc1ccc(S(=O)(=O)Nc2nnc(CC(C)(C)C)s2)cc1 [CBK049910] | 87.7 | 
72 | COc1ccc(OC)c(-c2cc(C(=O)O)c(C)s2)c1 [CBK049922] | 96.5 | 
73 | O=C(CC1SC(NC2CC3C=CC2C3)=NC1=O)NCc1ccccc1 (centres unmarked) [CBK049940] | 87.1 | 
74 | O=S(=O)(Cc1cc(Cl)ccc1C(F)(F)F)c1cc2c(N3CCNCC3)nccc2s1 [CBK049960C] | 115 | 
75 | COC(=O)c1sc2ncccc2c1NS(=O)(=O)c1ccc(C(F)(F)F)cc1[N+](=O)[O-] [CBK049969] | 95.4 | 
76 | COC(=O)c1sc2ncccc2c1NS(=O)(=O)c1cc(Br)ccc1OC [CBK049971] | 91.9 | 
77 | Cc1ccc(S(=O)(=O)Nc2c(C(=O)O)sc3ncccc23)cc1[N+](=O)[O-] [CBK049983] | 91.6 | 
78 | COc1ccc(S(=O)(=O)Nc2c(C(=O)N3CCOCC3)sc3ncccc23)cc1OC [CBK050005] | 108 | 
79 | CCc1nnc(NS(=O)(=O)c2ccc(NC(=S)Nc3ccc(F)cc3)cc2)s1 [CBK050037] | 89.7 | 
80 | CN1CCN(C(=O)c2[nH]c3ccccc3c2NS(=O)(=O)/C=C/c2ccccc2)CC1 [CBK050047] | 106 | 
81 | Cc1noc(C)c1S(=O)(=O)Nc1c(C(=O)N2CCN(C)CC2)[nH]c2ccccc12 [CBK050057] | 98.9 | 
82 | Cc1ccc(S(=O)(=O)Nc2c(C(=O)N3CCOCC3)[nH]c3ccccc23)cc1 [CBK050066] | 88.7 | 
83 | O=C(c1[nH]c2ccccc2c1NS(=O)(=O)Cc1ccccc1)N1CCOCC1 [CBK050067] | 99.5 | 
